Data from patent US8084398B2, “Benzoylpyrazoles and herbicide” (Bayer Cropscience AG, priority 2006, dated 2011).

Key:
Amaranthus lividus = assay: Herbicidal efficacy against field weeds, pre-emergence soil spray treatment (Test Example 1); assay type: in vivo; details: 500 g ai/ha, 2 weeks after treatment, 100% = complete death, 0% = no efficacy
Method: (§1) Test for herbicidal efficacy against field weeds (Pre-emergence soil spray treatment) Preparation of formulation of the active compound
(§2) Carrier: DMF 5 parts by weight
(§3) Emulsifier: Benzyloxy polyglycol ether 1 part by weight
(§4) A suitable formulation of an active compound is obtained as an emulsifiable concentrate by mixing 1 part by weight of the active compound with the stated amounts of the carrier and emulsifier. A prescribed amount of the formulation is diluted with water.
(§5) In a green house, the seeds of field weeds (Amaranthus lividus and Setaria viridis) were inoculated by one species per pot on the surface layer in 16 cm^2 pots filled with field soil (sand loam) and covered with soil. Immediately after the inoculation, the prescribed and diluted solutions of the formulations of respective active compounds prepared according to the above preparation method, were sprayed to the soil. After 2 weeks from the treatment, the herbicidal efficacy of respective active compounds was examined. The evaluation of the herbicidal efficacy was carried out by rating complete death as 100% and as 0% in case of no herbicidal efficacy. In case of showing herbicidal efficacy of 80% or more, such active compounds are evaluated to be practical as herbicides. As typical examples, the study results with Compound Nos. 19 and 96 and those with Comparative compound C-1 are shown in Table 2 below.

Setaria viridis [1] = assay: as above; assay type: in vivo; details: 500 g ai/ha, 2 weeks after treatment, 100% = complete death, 0% = no efficacy
Method: as §1, §2, §3, §4, §5

Setaria viridis [2] = assay: Herbicidal efficacy against field weeds, after-emergence stalk and leaf spray treatment (Test Example 2); assay type: in vivo; details: 2- to 3-leaf stage, 500 g ai/ha, 2 weeks after treatment, 100% = complete death
Method: as §4, §5
Test for herbicidal efficacy against field weeds (After-emerge stalk and leave spray treatment) […]

| Structure (SMILES) | herbicidal efficacy, Amaranthus lividus (Amaranthus lividus) | herbicidal efficacy, Setaria viridis (Setaria viridis [1]) | herbicidal efficacy, Setaria viridis (Setaria viridis [2]) | melting point |
| --- | --- | --- | --- | --- |
| CS(=O)(=O)c1ccc(C(=O)C2C(=O)CCCC2=O)c(Cl)c1 [C-1] | 70% | 30% | 40% | – |
| Cc1nn(C)c(O)c1C(=O)c1ccc(Cl)c(OCCn2cnnn2)c1Cl | – | – | – | 63 to 68 °C |
